Measurements: ChEMBL document CHEMBL1129656, “A study of the active site of influenza virus sialidase: an approach to the rational design of novel anti-influenza drugs” (J Med Chem, 1996)

Assay: Compound was tested for the inhibition of influenza virus sialidase using 2'-(4-methylumbelliferyl)-N-acetylneuraminic acid substrate
Design: species or system unidentified influenza virus

SMILES | Ki [µM]
CC(=O)NC1C(O)CC(O)(C(=O)O)OC1[C@H](O)[C@H](O)CO (stereo not given in full) | 1000
CC(=O)N[C@@H]1C(N)C=C(C(=O)O)O[C@H]1[C@H](O)[C@H](O)CO (single isomer, unassigned) | 0.3
CC(=O)NC1C(O)C=C(C(=O)O)OC1[C@H](O)[C@H](O)CO (stereo not given in full) | 4
CC(=O)N[C@H]1[C@H]([C@H](O)[C@H](O)CO)OC(C(=O)O)=C[C@H]1N | 0.04
CC(=O)N[C@@H]1C(NC(=N)N)C=C(C(=O)O)OC1[C@H](O)[C@H](O)CO (stereo not given in full) | 3e-05
